Source: ChEMBL document CHEMBL4725339, “Discovery of USP7 small-molecule allosteric inhibitors” (Bioorg Med Chem Lett, 2020)
The source made the active and inactive calls. The calls are words filed in the database; no cut-off is given here.

Legend:
[1] = target: Ubiquitin carboxyl-terminal hydrolase 14 (Homo sapiens, UniProt P54578); assay: Inhibition of USP14 (unknown origin)
[2] = target: T1, Ubiquitin carboxyl-terminal hydrolase 7 (Homo sapiens, UniProt Q93009); assay: Inhibition of recombinant full length USP7 (unknown origin) using di-ubiquitin as substrate by fluorescence based assay
Target sequence in this assay (Q93009 whole entry): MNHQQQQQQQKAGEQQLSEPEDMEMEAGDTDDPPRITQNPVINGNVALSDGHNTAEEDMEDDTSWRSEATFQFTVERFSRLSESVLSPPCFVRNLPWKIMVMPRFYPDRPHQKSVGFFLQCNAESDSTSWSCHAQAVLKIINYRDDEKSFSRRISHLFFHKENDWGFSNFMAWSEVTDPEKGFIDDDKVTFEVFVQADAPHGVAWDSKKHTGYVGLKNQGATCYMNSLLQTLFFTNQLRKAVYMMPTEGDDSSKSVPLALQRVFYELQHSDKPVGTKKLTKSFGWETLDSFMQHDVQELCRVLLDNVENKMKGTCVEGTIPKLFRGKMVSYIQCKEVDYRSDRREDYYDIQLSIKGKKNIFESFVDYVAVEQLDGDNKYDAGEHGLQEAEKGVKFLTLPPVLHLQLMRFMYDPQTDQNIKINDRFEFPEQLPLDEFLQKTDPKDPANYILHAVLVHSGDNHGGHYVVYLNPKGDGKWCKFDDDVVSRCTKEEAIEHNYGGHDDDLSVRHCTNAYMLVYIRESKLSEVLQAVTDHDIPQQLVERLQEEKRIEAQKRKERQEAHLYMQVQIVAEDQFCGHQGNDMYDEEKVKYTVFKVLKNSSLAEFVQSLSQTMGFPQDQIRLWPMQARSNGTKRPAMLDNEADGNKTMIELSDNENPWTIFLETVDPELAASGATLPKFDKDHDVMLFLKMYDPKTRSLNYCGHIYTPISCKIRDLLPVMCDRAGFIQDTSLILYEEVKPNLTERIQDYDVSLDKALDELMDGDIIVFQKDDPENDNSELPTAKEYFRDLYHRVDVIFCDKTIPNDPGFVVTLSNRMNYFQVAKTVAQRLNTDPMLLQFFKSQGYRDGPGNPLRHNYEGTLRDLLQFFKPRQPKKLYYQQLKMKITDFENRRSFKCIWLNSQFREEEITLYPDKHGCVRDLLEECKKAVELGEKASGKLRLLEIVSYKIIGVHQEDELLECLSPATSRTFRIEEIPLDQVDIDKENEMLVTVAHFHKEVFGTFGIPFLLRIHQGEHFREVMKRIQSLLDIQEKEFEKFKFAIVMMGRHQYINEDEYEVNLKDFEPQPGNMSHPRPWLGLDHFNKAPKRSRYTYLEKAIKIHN

[3] = target: T2, Ubiquitin carboxyl-terminal hydrolase 47 (Homo sapiens, UniProt Q96K76); assay: Inhibition of USP47 (unknown origin)
T2 sequence (Q96K76 whole entry): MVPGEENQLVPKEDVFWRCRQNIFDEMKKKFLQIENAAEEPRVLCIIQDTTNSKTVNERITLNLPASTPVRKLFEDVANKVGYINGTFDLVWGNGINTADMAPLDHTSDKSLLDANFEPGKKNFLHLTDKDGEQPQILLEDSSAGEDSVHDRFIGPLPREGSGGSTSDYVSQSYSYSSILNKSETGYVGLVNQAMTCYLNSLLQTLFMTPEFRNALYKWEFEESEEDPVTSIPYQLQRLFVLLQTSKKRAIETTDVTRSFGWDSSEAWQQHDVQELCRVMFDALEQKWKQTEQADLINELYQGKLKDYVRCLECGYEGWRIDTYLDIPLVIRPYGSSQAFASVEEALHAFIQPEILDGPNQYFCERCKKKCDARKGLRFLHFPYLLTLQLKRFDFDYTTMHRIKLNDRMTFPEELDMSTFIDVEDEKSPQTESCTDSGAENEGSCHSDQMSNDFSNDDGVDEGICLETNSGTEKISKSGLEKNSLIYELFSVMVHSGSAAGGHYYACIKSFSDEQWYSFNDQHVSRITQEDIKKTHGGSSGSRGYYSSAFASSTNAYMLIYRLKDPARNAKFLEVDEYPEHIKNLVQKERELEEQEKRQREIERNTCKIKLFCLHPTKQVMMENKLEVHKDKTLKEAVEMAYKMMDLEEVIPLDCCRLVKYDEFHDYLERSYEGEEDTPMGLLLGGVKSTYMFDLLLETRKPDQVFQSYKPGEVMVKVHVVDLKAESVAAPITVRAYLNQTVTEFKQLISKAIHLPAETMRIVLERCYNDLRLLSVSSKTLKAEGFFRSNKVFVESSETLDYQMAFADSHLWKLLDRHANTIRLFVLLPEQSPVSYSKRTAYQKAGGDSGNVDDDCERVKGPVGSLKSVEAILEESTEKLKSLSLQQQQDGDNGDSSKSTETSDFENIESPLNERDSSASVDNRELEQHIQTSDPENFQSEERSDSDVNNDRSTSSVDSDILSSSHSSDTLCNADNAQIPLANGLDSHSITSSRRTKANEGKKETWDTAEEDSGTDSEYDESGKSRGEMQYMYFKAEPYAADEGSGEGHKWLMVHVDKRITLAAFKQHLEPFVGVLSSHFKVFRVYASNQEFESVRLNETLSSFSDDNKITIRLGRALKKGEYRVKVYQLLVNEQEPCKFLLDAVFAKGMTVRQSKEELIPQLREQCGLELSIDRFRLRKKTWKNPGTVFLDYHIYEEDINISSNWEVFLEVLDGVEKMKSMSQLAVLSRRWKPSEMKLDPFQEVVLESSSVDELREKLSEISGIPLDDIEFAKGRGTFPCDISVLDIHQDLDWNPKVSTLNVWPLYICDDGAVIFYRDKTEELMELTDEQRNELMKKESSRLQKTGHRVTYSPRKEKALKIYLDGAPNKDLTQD

Homo sapiens [4] = species: Homo sapiens; assay: Selectivity index, ratio of IC50 for USP47 (unknown origin) to IC50 for recombinant full length USP7 (unknown origin) using di-ubiquitin as substrate by fluorescence based assay
Homo sapiens [5] = species: Homo sapiens; assay: Selectivity index, ratio of IC50 for USP14 (unknown origin) to IC50 for recombinant full length USP7 (unknown origin) using di-ubiquitin as substrate by fluorescence based assay
[6] = target: T3, Ubiquitin carboxyl-terminal hydrolase 1 (Homo sapiens, UniProt O94782); assay: Inhibition of USP1 (unknown origin)
T3 sequence (O94782 whole entry): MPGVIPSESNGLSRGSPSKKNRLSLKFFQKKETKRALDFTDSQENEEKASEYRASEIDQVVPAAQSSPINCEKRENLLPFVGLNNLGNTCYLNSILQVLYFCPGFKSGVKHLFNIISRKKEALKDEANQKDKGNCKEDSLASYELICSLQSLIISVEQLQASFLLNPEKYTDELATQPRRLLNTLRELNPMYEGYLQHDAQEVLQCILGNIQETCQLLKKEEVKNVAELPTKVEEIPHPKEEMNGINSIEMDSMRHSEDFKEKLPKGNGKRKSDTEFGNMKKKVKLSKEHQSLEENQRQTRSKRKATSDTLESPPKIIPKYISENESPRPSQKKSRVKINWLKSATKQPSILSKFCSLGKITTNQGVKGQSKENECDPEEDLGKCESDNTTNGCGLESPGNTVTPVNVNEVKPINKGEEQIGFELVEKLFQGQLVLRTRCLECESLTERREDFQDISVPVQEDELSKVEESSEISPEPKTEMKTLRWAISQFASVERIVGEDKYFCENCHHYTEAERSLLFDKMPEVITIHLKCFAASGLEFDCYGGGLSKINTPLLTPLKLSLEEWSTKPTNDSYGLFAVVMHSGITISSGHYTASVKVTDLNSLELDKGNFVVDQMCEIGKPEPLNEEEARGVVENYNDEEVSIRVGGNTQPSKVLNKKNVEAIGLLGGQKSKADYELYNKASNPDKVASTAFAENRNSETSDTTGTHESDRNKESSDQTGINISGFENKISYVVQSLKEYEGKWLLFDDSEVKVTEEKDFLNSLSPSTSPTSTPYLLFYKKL

Homo sapiens [7] = species: Homo sapiens; assay: Selectivity index, ratio of IC50 for USP1 (unknown origin) to IC50 for recombinant full length USP7 (unknown origin) using di-ubiquitin as substrate by fluorescence based assay
[8] = target: T1, Ubiquitin carboxyl-terminal hydrolase 7; assay: Inhibition of recombinant human His-tagged USP7 (208 to 560 residues) expressed in Hi-five Sf9 cells using monoubiquitinated ubiquitin-rhodamine as substrate incubated for 1 hr by fluorescence based assay
Target sequence in this assay (Q93009 whole entry): as the sequence (Q93009 whole entry) above

[9] = target: T1, Ubiquitin carboxyl-terminal hydrolase 7; assay: Allosteric binding affinity to USP7 catalytic domain (unknown origin) at Met328 residues by NMR-15N-1H TROSY spectral titration analysis
Target sequence in this assay (Q93009 whole entry): as the sequence (Q93009 whole entry) above

[10] = Aqueous solubility of compound; format: physicochemical; conditions: water (aqueous)
[11] = target: T1, Ubiquitin carboxyl-terminal hydrolase 7; assay: Binding affinity to USP7 (unknown origin) by 1H-NMR-STD analysis
Target sequence in this assay (Q93009 whole entry, looked up): as the sequence (Q93009 whole entry) above

[12] = target: T1, Ubiquitin carboxyl-terminal hydrolase 7; assay: Allosteric binding affinity to USP7 catalytic domain (unknown origin) at Met328, Trp285, Gly284, Gln405 and Gly313 residues by NMR-15N-1H TROSY spectral titration analysis
Target sequence in this assay (Q93009 whole entry): as the sequence (Q93009 whole entry) above

[13] = target: T1, Ubiquitin carboxyl-terminal hydrolase 7; assay: Allosteric binding affinity to USP7 catalytic domain (unknown origin) at His403, Gln351, Leu304, Ser353, Met328, Trp285 and Gly284 residues at 1.12 mM by NMR-15N-1H TROSY spectral titration analysis
Target sequence in this assay (Q93009 whole entry, looked up): as the sequence (Q93009 whole entry) above

[14] = target: T1, Ubiquitin carboxyl-terminal hydrolase 7; assay: Binding affinity to USP7 (unknown origin) by 1H-1H-NOESY experiment based analysis
Target sequence in this assay (Q93009 whole entry, looked up): as the sequence (Q93009 whole entry) above

[15] = target: T1, Ubiquitin carboxyl-terminal hydrolase 7; assay: Binding affinity to USP7 (unknown origin) by T2 relaxation experiment based analysis
Target sequence in this assay (Q93009 whole entry): as the sequence (Q93009 whole entry) above

[16] = target: T1, Ubiquitin carboxyl-terminal hydrolase 7; assay: Inhibition of recombinant human C-terminal His-tagged N-terminal GST-tagged full length USP7 using di-ubiquitin as substrate preincubated for 10 mins followed by substrate addition and measured after 60 mins by TR-FRET assay
Target sequence in this assay (Q93009 whole entry): as the sequence (Q93009 whole entry) above

Sequence of Ubiquitin carboxyl-terminal hydrolase 14 (P54578 whole entry): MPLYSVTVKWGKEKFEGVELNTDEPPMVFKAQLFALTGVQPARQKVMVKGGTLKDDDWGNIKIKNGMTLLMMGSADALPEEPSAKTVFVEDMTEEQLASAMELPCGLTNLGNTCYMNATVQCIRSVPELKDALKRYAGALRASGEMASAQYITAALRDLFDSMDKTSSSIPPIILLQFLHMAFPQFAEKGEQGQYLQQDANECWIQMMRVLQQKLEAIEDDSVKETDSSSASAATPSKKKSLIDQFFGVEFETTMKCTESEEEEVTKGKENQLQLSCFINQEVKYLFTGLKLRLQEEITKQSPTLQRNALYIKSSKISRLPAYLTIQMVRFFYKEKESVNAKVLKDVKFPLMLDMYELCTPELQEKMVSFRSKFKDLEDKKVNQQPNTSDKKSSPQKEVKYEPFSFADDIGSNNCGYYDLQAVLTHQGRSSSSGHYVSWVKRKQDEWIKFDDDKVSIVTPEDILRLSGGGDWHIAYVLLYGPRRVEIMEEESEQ

IC50 [1] | IC50 [2] | IC50 [3] | Ratio IC50 (Homo sapiens [4]) | Ratio IC50 (Homo sapiens [5]) | IC50 [6] | Ratio IC50 (Homo sapiens [7]) | IC50 [8] | Kd [9] | solubility [10] | Activity [11] | Kd [12] | Activity [13] | Kd [15] | IC50 [16] | SMILES | Activity [14]
> 100 µM | 42 µM | > 100 µM | > 2 | > 2 | > 100 µM | > 2 |  |  |  |  |  |  |  |  | Nc1nc2cc(C(F)(F)F)ccn2c1-c1ccc(O)cc1 | 
> 100 µM | 5.3 µM | > 100 µM | > 2 | > 2 | > 100 µM | > 2 |  |  |  |  |  |  |  |  | Nc1nc2cc(C3CCNCC3)ccn2c1-c1ccc(O)cc1 | 
 |  |  |  |  |  |  | 0.052 µM |  |  |  |  |  |  |  | O=C(C[C@@H](C(F)F)n1ccc(F)n1)N1CCC(O)(Cn2cnc3c(cnn3-c3ccc(F)cc3)c2=O)CC1 | 
> 100 µM | 8.8 µM | > 100 µM | > 2 | > 2 | > 100 µM | > 2 |  |  |  |  |  |  |  |  | Cc1cccn2c(-c3ccc(O)cc3)c(N)nc12 | 
> 100 µM | 34 µM | > 100 µM |  |  | > 100 µM |  |  | 580 µM | > 800 µM | Active | 680 µM | Active | 540 µM |  | CC(=O)Nc1nc2ccccn2c1-c1ccc(O)cc1 | Active
> 100 µM | 39 µM | > 100 µM | > 2 | > 2 | > 100 µM | > 2 |  |  |  |  |  |  |  |  | Cc1ccc2nc(N)c(-c3ccc(O)cc3)n2c1 | 
> 100 µM | 7.9 µM | > 100 µM | > 2 | > 2 | > 100 µM | > 2 |  |  |  |  |  |  |  |  | CC(C)Nc1nc2ccccn2c1-c1ccc(O)cc1 | 
> 100 µM | 26 µM | > 100 µM | > 2 | > 2 | > 100 µM | > 2 |  |  |  |  |  |  |  |  | Nc1nc2c(C(F)(F)F)cccn2c1-c1ccc(O)cc1 | 
> 100 µM | 27 µM | > 100 µM | > 2 | > 2 | > 100 µM | > 2 |  |  |  |  |  |  |  |  | Cc1ccn2c(-c3ccc(O)cc3)c(N)nc2c1 | 
> 100 µM | 48 µM | > 100 µM | > 2 | > 2 | > 100 µM | > 2 |  |  |  |  |  |  |  |  | Nc1nc2ccc(C(F)(F)F)cn2c1-c1ccc(O)cc1 | 
> 100 µM | 24 µM | > 100 µM | > 2 | > 2 | > 100 µM | > 2 |  |  |  |  |  |  |  |  | CN(C)c1nc2ccccn2c1-c1ccc(O)cc1 | 
 |  |  |  |  |  |  |  |  |  |  |  |  |  | 1.3 µM | CCc1c(-c2ccc(C(=O)NC)nc2)cnc(N)c1-c1ccc(O)cc1 | 
> 100 µM | 24 µM | > 100 µM | > 2 | > 2 | > 100 µM | > 2 |  |  |  |  |  |  |  |  | Nc1nc2ccccn2c1-c1ccc(O)cc1 | 
> 100 µM | 38 µM | > 100 µM | > 2 | > 2 | > 100 µM | > 2 |  |  |  |  |  |  |  |  | COc1ccc(-c2c(N)nc3ccccn23)cc1 | 
> 100 µM | 16 µM | > 100 µM | > 2 | > 2 | > 100 µM | > 2 |  |  |  |  |  |  |  |  | CNc1nc2ccccn2c1-c1ccc(O)cc1 | 
